Data as given in patent publication US20230233567A1, “BELVARAFENIB FOR USE IN CANCER TREATMENT” (Hanmi Pharm. Co., Ltd., priority 2020, published 2023).
Like-named read-outs stand apart in the source and are kept apart here.

Test: Phase I study plasma pharmacokinetics
Assay type: in vivo, human
Conditions: human, plasma; for AUC(0-inf) / AUC(0-t) / Cmax / AUC / Vd/F: mean; for AUC: read-out: AUC24; for Vd/F: read-out: Vz/F; for half-life: read-out: median t1/2 at steady state
Description: The PK parameters of belvarafenib were estimated in 48 patients in the dose-escalation phase and 35 patients in the dose-expansion phase. In the tables: “AUClast” refers to the area under the plasma concentration-time curve from zero time until the last measurable concentration; “AUC0-∞” refers to area under the plasma concentration-time curve from zero time to infinity; “AUC24” refers to the area under the curve from T0 to T24; “Cmax” refers to the maximal concentration; “Tmax” refers to the time to reach Cmax; “T1/2β” refers to the terminal elimination half-life; “QD” refers to once a day; and “BID” refers to twice a day. […] Mean and coefficient of variation are presented except for Tmax where median and range are presented. One patient in the 200 QD dosing regimen who took concomitant rifampin was removed from the analysis because the AUC and Cmax of the patient were much lower than those of the others in the same cohort, which, without being bound to any particular theory, could have resulted from the drug-metabolizing enzyme induction by rifampin through which belvarafenib is biotransformed.

[1] = oral, 600 mg/day, Multiple administrations Day 22, 600 mg/day QD, n=6
[2] = oral, 900 mg/day, Multiple administrations Day 22, 900 mg/day BID, n=7
[3] = oral, 1300 mg/day, Multiple administrations Day 22, 1300 mg/day BID, n=6
[4] = oral, 1600 mg/day, Multiple administrations Day 22, 1600 mg/day BID, n=4
[5] = po, 50 mg/day QD, Day 1 first dose, 50 mg/day QD, n=3
[6] = po, 100 mg/day QD, Day 1 first dose, 100 mg/day QD, n=3
[7] = po, 200 mg, Day 1 first dose, 200 mg/day QD, n=6
[8] = po, 200 mg/day QD, Day 1 first dose, 200 mg/day QD, n=7
[9] = po, 400 mg/day BID, Day 1 first dose, 400 mg/day BID, n=11
[10] = po, 600 mg/day BID, Day 1 first dose, 600 mg/day BID, n=7
[11] = po, 600 mg/day, Day 1 first dose, 600 mg/day BID, n=7
[12] = po, 600 mg/day, Day 1 first dose, 600 mg/day QD, n=6
[13] = po, 900 mg/day, Day 1 first dose, 900 mg/day BID, n=8
[14] = po, 1300 mg/day, Day 1 first dose, 1300 mg/day BID, n=6
[15] = po, 1600 mg/day, Day 1 first dose, 1600 mg/day BID, n=6

Question: Which results are given for `Cc1ccc2c(Nc3cccc(Cl)c3F)nccc2c1NC(=O)c1csc2c(N)ncnc12` [Belvarafenib]?
Answer: AUC(0-inf) [1]: 434000 ng·h/mL; AUC(0-t) [1]: 57600 ng·h/mL; Cmax [1]: 3130 ng/mL; AUC [1]: 58000 ng·h/mL; Vd/F [1]: 241 L; Tmax (oral, 600 mg/day, Multiple administrations Day 22, 600 mg/day QD, n=6, median, read-out: Tmax): 4.1 h; AUC(0-inf) [2]: 322000 ng·h/mL; AUC(0-t) [2]: 126000 ng·h/mL; Cmax [2]: 6090 ng/mL; AUC [2]: 127000 ng·h/mL; Vd/F [2]: 148 L; Tmax (oral, 900 mg/day, Multiple administrations Day 22, 900 mg/day BID, n=7, median, read-out: Tmax): 2.9 h; AUC(0-inf) [3]: 625000 ng·h/mL; AUC(0-t) [3]: 158000 ng·h/mL; Cmax [3]: 7320 ng/mL; AUC [3]: 159000 ng·h/mL; Vd/F [3]: 195 L; Tmax (oral, 1300 mg/day, Multiple administrations Day 22, 1300 mg/day BID, n=6, median, read-out: Tmax): 2 h; AUC(0-inf) [4]: 139000 ng·h/mL; AUC(0-t) [4]: 49200 ng·h/mL; Cmax [4]: 2360 ng/mL; AUC [4]: 49600 ng·h/mL; Vd/F [4]: 871 L; Tmax (oral, 1600 mg/day, Multiple administrations Day 22, 1600 mg/day BID, n=4, median, read-out: Tmax): 5.5 h; Tmax (oral, BID regimens, read-out: Single-dose median Tmax): 15.5 to 24 h; half-life (oral, BID regimens): 32.3 to 66.4 h; Tmax (oral, QD regimens, read-out: Single-dose median Tmax): 3 to 4.5 h; half-life (oral, QD regimens): 65.1 to 106 h; AUC(0-inf) [5]: 27000 ng·h/mL; Cmax [5]: 553 ng/mL; Vd/F [5]: 186 L; Tmax (po, 50 mg/day QD, Day 1 first dose, 50 mg/day QD, n=3, median, read-out: Tmax): 3 h; AUC(0-t) (po, 50 mg/day, Day 1 first dose, 50 mg/day QD, n=3): 13000 ng·h/mL; AUC(0-inf) [6]: 51500 ng·h/mL; Cmax [6]: 807 ng/mL; Vd/F [6]: 215 L; Tmax (po, 100 mg/day QD, Day 1 first dose, 100 mg/day QD, n=3, median, read-out: Tmax): 3 h; AUC(0-t) (po, 100 mg/day, Day 1 first dose, 100 mg/day QD, n=3): 45000 ng·h/mL; AUC(0-inf) [7]: 37800 ng·h/mL; AUC(0-t) [7]: 28800 ng·h/mL; Cmax [7]: 602 ng/mL; Vd/F [7]: 529 L; Tmax (po, 200 mg, Day 1 first dose, 200 mg/day QD, n=6, median, read-out: Tmax): 4.4 h; AUC(0-inf) [8]: 32800 ng·h/mL; Cmax [8]: 549 ng/mL; Vd/F [8]: 550 L; Tmax (po, 200 mg/day QD, Day 1 first dose, 200 mg/day QD, n=7, median, read-out: Tmax): 4.1 h; AUC(0-t) (po, 200 mg/day, Day 1 first dose, 200 mg/day QD, n=7): 25100 ng·h/mL; AUC(0-inf) [9]: 78300 ng·h/mL; Cmax [9]: 900 ng/mL; Vd/F [9]: 758 L; Tmax (po, 400 mg/day BID, Day 1 first dose, 400 mg/day BID, n=11, median, read-out: Tmax): 6.9 h; AUC(0-t) (po, 400 mg/day, Day 1 first dose, 400 mg/day BID, n=11): 62300 ng·h/mL; AUC(0-inf) [10]: 169000 ng·h/mL; AUC(0-t) [10]: 121000 ng·h/mL; AUC(0-t) (po, 600 mg/day QD, Day 1 first dose, 600 mg/day QD, n=6): 71100 ng·h/mL; Cmax [11]: 1210 ng/mL; Vd/F [11]: 884 L; Tmax (po, 600 mg/day, Day 1 first dose, 600 mg/day BID, n=7, median, read-out: Tmax): 24 h; AUC(0-inf) [12]: 84700 ng·h/mL; Cmax [12]: 1320 ng/mL; Vd/F [12]: 798 L; Tmax (po, 600 mg/day, Day 1 first dose, 600 mg/day QD, n=6, median, read-out: Tmax): 4.5 h; AUC(0-inf) [13]: 177000 ng·h/mL; Cmax [13]: 1590 ng/mL; Vd/F [13]: 534 L; Tmax (po, 900 mg/day, Day 1 first dose, 900 mg/day BID, n=8, median, read-out: Tmax): 17 h; AUC(0-t) (po, 1300 mg/day BID, Day 1 first dose, 1300 mg/day BID, n=6): 156000 ng·h/mL; AUC(0-inf) [14]: 225000 ng·h/mL; Cmax [14]: 1790 ng/mL; Vd/F [14]: 708 L; Tmax (po, 1300 mg/day, Day 1 first dose, 1300 mg/day BID, n=6, median, read-out: Tmax): 15.5 h; AUC(0-t) (po, 1600 mg/day BID, Day 1 first dose, 1600 mg/day BID, n=6): 134000 ng·h/mL; AUC(0-inf) [15]: 336000 ng·h/mL; Cmax [15]: 1440 ng/mL; Vd/F [15]: 1700 L; Tmax (po, 1600 mg/day, Day 1 first dose, 1600 mg/day BID, n=6, median, read-out: Tmax): 20.4 h
